The target of one assay is T1, c-KIT (Homo sapiens, UniProt P10721).
T1 construct: purchased Millipore 14-559K
Kind of assay: AlphaScreen kinase assay with recombinant enzyme, c-KIT. The settings on record: 100ATP, 8pt, GMean. Type of assay: biochemical. As to the method:
(§1) In order to determine the effect of compounds on FLT3 catalytic activity, kinase assays using recombinant enzymes and AlphaScreen® technology have been established. The catalytic activity of c-kit activity was also measured to determine selectivity of the compounds. When the kinases are catalytically active, they phosphorylate a biotinylated peptide substrate on tyrosine residues. Using AlphaScreen® technology, the ability of the compounds to affect the catalytic activity of the kinases can be measured quantitatively. The peptide substrate is immobilized by the AlphaScreen® Streptavidin Donor beads and, upon phosphorylation by a tyrosine kinase, can bind to AlphaScreen® Anti-Phosphotyrosine (PY20) Acceptor beads. Upon excitation of these beads with laser light at 680 nm, singlet oxygen is produced. This singlet oxygen is rapidly quenched, unless the AlphaScreen® Anti-Phosphotyrosine (PY20) Acceptor beads are in close proximity, in which case a proximity signal can be measured at 580 nm. In the presence of catalytic activity, there is a very strong proximity signal. Selective kinase inhibitors affect a decrease in this proximity signal through a decrease in tyrosine phosphorylation of the peptide substrate.
(§2) The assay was performed as summarized below.
(§3) Poly (Glu4-Tyr) Peptide, biotin conjugate [Biotin-GG(EEEEY)10EE] (SEQ ID NO: 4)
(§4) Final concentration=30 nM
(§5) Final concentration for IC50 determination=10 μM (FLT3-D835Y or FLT3-ITD) or 100 μM (c-KIT)
(§6) AlphaScreen® Phosphotyrosine (PY20) Assay Kit
(§7) Final concentration=10 μg/mL
(§8) Dilute compounds in DMSO to 20× final concentration.
(§9) Add 1 μl of compound to each well of 384 well reaction plate (Perkin Elmer #6005359).
(§10) Mix enzyme and Poly (Glu4-Tyr) Peptide substrate at 1.33× final concentration in assay buffer.
(§11) Mix ATP at 5× final concentration in assay buffer.
(§12) Add 15 μL enzyme/substrate mixture to the reaction plate.
(§13) Add 4 μL of ATP to the reaction plate.
(§14) Mix Streptavidin Donor beads at 6× final concentration in Stop/Detection buffer.
(§15) Add 5 μL Streptavidin Donor beads to the reaction plate. Centrifuge 1 minute, shake to mix, and incubate at room temperature for 20 minutes.
(§16) Mix Anti-Phosphotyrosine (PY20) Acceptor beads at 6× final concentration in Stop/Detection buffer.
(§17) Add 5 μL Anti-Phosphotyrosine (PY20) beads to the reaction plate.
(§18) Centrifuge 1 minute, shake to mix, and incubate at room temperature for 60 minutes.
(§19) Read plate on Wallac EnVision™ 2103 Multilabel Reader.

The target in another assay is T2, FLT3-ITD (Homo sapiens, UniProt P36888).
T2 sequence (P36888 1-993): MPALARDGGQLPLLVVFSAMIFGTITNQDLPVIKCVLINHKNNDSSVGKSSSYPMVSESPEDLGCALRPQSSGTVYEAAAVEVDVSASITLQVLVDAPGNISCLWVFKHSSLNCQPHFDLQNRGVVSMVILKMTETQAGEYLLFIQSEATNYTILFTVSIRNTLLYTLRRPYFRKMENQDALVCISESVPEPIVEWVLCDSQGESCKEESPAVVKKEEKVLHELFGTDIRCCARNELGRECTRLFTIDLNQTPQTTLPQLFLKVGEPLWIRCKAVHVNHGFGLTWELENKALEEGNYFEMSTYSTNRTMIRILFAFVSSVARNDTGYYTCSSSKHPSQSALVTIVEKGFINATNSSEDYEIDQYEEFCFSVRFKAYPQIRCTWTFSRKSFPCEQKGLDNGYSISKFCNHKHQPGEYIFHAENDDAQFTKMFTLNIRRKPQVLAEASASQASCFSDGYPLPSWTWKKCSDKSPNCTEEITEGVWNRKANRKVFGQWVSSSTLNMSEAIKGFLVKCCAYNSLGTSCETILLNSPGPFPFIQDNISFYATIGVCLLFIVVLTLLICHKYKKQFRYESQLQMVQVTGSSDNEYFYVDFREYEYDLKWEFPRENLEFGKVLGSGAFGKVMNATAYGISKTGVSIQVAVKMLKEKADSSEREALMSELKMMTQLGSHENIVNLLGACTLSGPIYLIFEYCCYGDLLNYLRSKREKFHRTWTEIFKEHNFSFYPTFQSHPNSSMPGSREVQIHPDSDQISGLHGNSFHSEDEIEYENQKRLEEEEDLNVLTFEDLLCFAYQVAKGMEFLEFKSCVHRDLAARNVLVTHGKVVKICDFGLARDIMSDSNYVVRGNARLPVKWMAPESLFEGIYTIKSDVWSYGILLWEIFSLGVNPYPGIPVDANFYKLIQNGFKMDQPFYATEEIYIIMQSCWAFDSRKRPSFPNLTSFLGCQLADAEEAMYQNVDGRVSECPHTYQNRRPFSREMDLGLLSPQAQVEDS
Kind of assay: AlphaScreen kinase assay with recombinant enzyme, FLT3-ITD. Type of assay: biochemical. The settings on record: 8pt; read-out: FLT3_ITD 8pt: IC50. How it is done: as §1, §2, §3, §4, §5, §6, §7, §8, §9, §10, §11, §12, §13, §14, §15, §16, §17, §18, §19
On the technique in general: Alpha assays give light when donor and acceptor beads are brought close together.

The next assay has as its target T3, FLT3-D835Y (Homo sapiens, UniProt P36888, D835Y).
T3 construct: purchased Invitrogen PV3967
T3 sequence (P36888 27-993 D835Y): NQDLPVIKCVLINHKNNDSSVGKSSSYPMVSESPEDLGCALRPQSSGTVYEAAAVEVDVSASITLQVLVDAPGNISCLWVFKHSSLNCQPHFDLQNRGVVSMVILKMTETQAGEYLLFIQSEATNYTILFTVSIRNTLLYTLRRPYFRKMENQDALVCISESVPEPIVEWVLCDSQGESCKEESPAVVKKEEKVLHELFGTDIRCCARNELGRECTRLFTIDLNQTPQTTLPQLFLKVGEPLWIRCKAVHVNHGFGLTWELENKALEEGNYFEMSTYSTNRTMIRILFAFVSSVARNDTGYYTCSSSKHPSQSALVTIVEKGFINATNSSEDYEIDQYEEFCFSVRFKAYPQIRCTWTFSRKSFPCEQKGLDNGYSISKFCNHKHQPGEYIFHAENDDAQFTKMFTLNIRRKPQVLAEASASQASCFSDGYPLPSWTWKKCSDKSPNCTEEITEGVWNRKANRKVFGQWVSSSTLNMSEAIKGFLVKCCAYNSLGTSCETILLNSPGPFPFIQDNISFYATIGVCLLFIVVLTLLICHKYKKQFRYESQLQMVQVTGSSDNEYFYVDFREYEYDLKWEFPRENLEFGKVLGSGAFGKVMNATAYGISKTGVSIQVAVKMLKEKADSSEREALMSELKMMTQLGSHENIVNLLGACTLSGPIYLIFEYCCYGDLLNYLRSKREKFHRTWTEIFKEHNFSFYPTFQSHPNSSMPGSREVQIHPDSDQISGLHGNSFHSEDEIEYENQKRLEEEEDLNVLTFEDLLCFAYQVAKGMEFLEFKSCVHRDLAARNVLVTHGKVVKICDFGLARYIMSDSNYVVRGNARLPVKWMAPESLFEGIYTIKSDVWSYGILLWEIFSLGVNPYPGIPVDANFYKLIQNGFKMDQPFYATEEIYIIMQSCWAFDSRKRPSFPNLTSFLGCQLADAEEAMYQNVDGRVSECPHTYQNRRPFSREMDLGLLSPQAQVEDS
Briefly: AlphaScreen kinase assay with recombinant enzyme, FLT3-D835Y. Type of assay: biochemical. The settings on record: 8pt, GMean. How it is done: as §1, §2, §3, §4, §5, §6, §7, §8, §9, §10, §11, §12, §13, §14, §15, §16, §17, §18, §19

Assay [1] relates to MOLM-14 D835Y cells, FLT3 ITD and FLT3 D835Y. Kind of assay: Cell proliferation assay (CellTiter-Glo), MOLM-14 D835Y. Format: cell-based. Particulars: Homo sapiens, 72 h, 3d-Growth, GMean. The text has this:
The FLT3 inhibitors may be assessed using the MOLM-14, Acute Myeloid Leukemia cell line that endogenously expresses FLT3 ITD or derivatives of the human FLT3 AML cell line which acquired the D835Y (activation loop) of F691L (gatekeeper) mutation after selection in escalating doses of the FLT3 Inhibitor AC220. FLT3 inhibitors may also be assessed using cells that are engineered to express mutant FLT3. For engineered cells, murine Ba/F3 cells were transfected with full-length FLT3 ITD/D835Y mutations. The parental BA/F3 cells are dependent upon Interleukin-3 (IL-3) for survival, and introduction of the FLT3 constructs rendered these cells dependent upon FLT3 kinase activity when cultured in the absences of IL-3. Engineered BA/F3 cell growth assays can be performed in either the […] of IL-3, to assess the compound inhibition of FLT3 or to detect the presence of off-target activity, respectively. Inhibitors of FLT3 kinase activity reduce or eliminate the FLT3 oncogenic signaling, resulting in reduced cell proliferation. This inhibition is measured as a function of compound concentration to asses IC50 values.
Cell lines used in proliferation assays are as follows in Table 3:
Cells were seeded at 1×10^4 cells per well of a 96 well cell culture plate in 50 μl of cell culture medium. Compounds were dissolved in DMSO, typically at a concentration of 0.5 mM and were serially diluted 1:3 for a total of eight points and added to the cells to final concentrations of […], 0.0041, 0.0014 and 0.00046 μM in 100 μl cell culture medium (final concentration 0.2% DMSO). […] The cells were incubated at 37° C., 5% CO2 for three days. CellTiter-Glo Buffer (Promega Cell Viability Assay catalog #G7573) and substrate were equilibrated to room temperature, and enzyme/substrate Recombinant Firefly Luciferase/Beetle Luciferin was reconstituted. The cell plates were equilibrated to room temperature for 30 minutes, then lysed by addition of an equivalent volume of the Celltiter-Glo Reagent. The plate was mixed for 10 minutes on a plate shaker to lyse the cells. The plates were read on a Tecan M1000 using Luminescence protocol modified to read 0.1 s per well. The luminescence reading assesses the ATP content, which correlates directly with cell number such that the reading as a function of compound concentration was used to determine the IC50 value.

Structures are written as SMILES.

T1 sequence (P10721 26-976): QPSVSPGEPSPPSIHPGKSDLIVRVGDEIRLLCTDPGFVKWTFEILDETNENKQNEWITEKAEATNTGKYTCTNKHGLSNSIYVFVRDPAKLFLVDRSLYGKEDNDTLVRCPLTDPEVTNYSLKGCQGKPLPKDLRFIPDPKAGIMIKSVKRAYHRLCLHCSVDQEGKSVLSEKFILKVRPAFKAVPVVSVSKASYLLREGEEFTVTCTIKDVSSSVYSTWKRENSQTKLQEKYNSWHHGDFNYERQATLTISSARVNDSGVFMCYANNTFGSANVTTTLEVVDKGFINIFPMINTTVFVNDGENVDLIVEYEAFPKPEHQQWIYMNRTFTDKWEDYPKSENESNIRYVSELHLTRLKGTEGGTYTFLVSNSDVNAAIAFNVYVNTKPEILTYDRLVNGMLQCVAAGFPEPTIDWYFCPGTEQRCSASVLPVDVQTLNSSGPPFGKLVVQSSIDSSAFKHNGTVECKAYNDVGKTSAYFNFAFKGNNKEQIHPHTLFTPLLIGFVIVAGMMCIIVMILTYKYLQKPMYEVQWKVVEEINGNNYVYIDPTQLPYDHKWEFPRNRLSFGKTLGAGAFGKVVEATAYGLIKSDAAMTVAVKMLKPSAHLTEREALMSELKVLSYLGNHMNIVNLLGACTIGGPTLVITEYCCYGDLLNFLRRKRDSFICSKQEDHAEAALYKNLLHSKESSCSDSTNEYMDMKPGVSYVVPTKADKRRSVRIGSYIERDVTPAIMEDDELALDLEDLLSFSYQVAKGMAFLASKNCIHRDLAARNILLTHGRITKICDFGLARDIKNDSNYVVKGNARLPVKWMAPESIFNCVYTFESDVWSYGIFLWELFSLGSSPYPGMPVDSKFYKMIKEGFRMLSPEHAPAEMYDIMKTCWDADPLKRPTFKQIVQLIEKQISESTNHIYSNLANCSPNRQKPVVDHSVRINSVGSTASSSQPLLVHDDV

The term IC50 denotes the concentration at which inhibition is half-maximal. In the case of `NC1CCC(NC(=O)c2n[nH]c3ccc(-c4cnc5[nH]c(-c6ccccc6)cc5c4)cc23)CC1` (centres unmarked) [Compound P-0019, N-(4-aminocyclohexyl)-5-(2-phenyl-1H-pyrrolo[2,3-b]pyridin-5-yl)-1H-indazole-3-carboxamide], the IC50 on c-KIT, on FLT3-ITD and at FLT3-D835Y was 0.0001 to 10 µM each time.
In the case of `O=C(O)C1CCN(C(=O)c2cccc(-c3cnc4[nH]c(-c5ccccc5)cc4c3)n2)CC1` [Compound P-0024, 1-[6-(2-phenyl-1H-pyrrolo[2,3-b]pyridin-5-yl)pyridine-2-carbonyl]piperidine-4-carboxylic acid], the IC50 on c-KIT is 10 to 50 µM; on FLT3-ITD it was 0.0001 to 10 µM; at FLT3-D835Y, 0.0001 to 10 µM.
Consider `CN[C@H]1CCN(C(=O)c2cccc(-c3cnc4[nH]c(-c5ccccc5)cc4c3)n2)C1` [Compound P-0051, [(3S)-3-(methylamino)pyrrolidin-1-yl]-[6-(2-phenyl-1H-pyrrolo[2,3-b]pyridin-5-yl)-2-pyridyl]methanone], for which the IC50 on c-KIT, at FLT3-ITD and on FLT3-D835Y was 0.0001 to 10 µM each time.
Consider `Cn1cc(NC(=O)c2cccc(-c3cnc4[nH]c(-c5ccccc5)cc4c3)n2)cn1` [Compound P-0065, N-(1-methylpyrazol-4-yl)-6-(2-phenyl-1H-pyrrolo[2,3-b]pyridin-5-yl)pyridine-2-carboxamide], for which the IC50 at c-KIT fell in the range of 10 to 50 µM; at FLT3-D835Y, 0.0001 to 10 µM.
As to `Cn1ccc(NC(=O)c2cccc(-c3cnc4[nH]c(-c5ccccc5)cc4c3)n2)n1` [Compound P-0066, N-(1-methylpyrazol-3-yl)-6-(2-phenyl-1H-pyrrolo[2,3-b]pyridin-5-yl)pyridine-2-carboxamide], the concentration for half-maximal inhibition (IC50) on c-KIT was in the range of 50 to 100 µM; at FLT3-ITD, 0.0001 to 10 µM; on FLT3-D835Y it was 0.0001 to 10 µM.
With `O=C(c1ccc(-c2cnc3[nH]c(-c4ccccc4)cc3c2)s1)N1CCC(n2ccnc2)C1` (centres unmarked) [Compound P-0110, (3-imidazol-1-ylpyrrolidin-1-yl)-[5-(2-phenyl-1H-pyrrolo[2,3-b]pyridin-5-yl)-2-thienyl]methanone], the half-inhibitory concentration (IC50) on c-KIT lay in the range of 10 to 50 µM.
With `COC(=O)C1(NC(=O)c2cccc(-c3cnc4[nH]c(-c5ccccc5)cc4c3)n2)CC1` [Compound P-0129, methyl 1-[[6-(2-phenyl-1H-pyrrolo[2,3-b]pyridin-5-yl)pyridine-2-carbonyl]amino]cyclopropanecarboxylate], the 50% inhibitory concentration (IC50) (on FLT3-D835Y; in assay [1]) was 0.0001 to 10 µM throughout.
On to `CC(C)(C#N)NC(=O)c1cccc(-c2cnc3[nH]c(-c4ccnc(F)c4)cc3c2)n1` [Compound P-0209, N-(1-cyano-1-methyl-ethyl)-6-[2-(2-fluoro-4-pyridyl)-1H-pyrrolo[2,3-b]pyridin-5-yl]pyridine-2-carboxamide], for which the figures for the IC50 on c-KIT, on FLT3-ITD and on FLT3-D835Y were 50 to 100 µM, 0.0001 to 10 µM and 0.0001 to 10 µM, respectively.
Regarding `Cc1cc(-c2cc3cc(-c4cccc(C(=O)NC(C)(C)C#N)n4)cnc3[nH]2)ccn1` [Compound P-0210, N-(1-cyano-1-methyl-ethyl)-6-[2-(2-methyl-4-pyridyl)-1H-pyrrolo[2,3-b]pyridin-5-yl]pyridine-2-carboxamide], the IC50 is 50 to 100 µM on c-KIT, 0.0001 to 10 µM on FLT3-ITD and 0.0001 to 10 µM on FLT3-D835Y.
